From US20250319067A1, “Improved Pharmacokinetics of Tryptamine Prodrugs” (Reunion Neuroscience, Inc., priority 2023, published 2025)

Experiments:
[1] = Prodrug cleavage in mouse plasma; format: in vitro ADME; conditions: 37° C.
Procedure: (§1) Mean values from 3 replicate assays are reported. See the Supplemental Methods for additional details.
(§2) Triplicate aliquots (50 μL) of each spiked plasma solution were immediately added to 200 μL of ice-cold methanol/acetonitrile solution (50:50 v/v) containing the internal standards to generate time zero samples. Spiked plasma solutions were incubated at 37° C. in an orbital shaker set to 75 rpm, and 50-μL samples were taken in triplicate after 30 minutes and 1, 2, and 4 hours of incubation. Each sample was immediately added to 200 μL ofice-cold methanol/acetonitrile solution containing the internal standard(s) to terminate the reaction. Samples were mixed by vortex and then stored at −80° C. until analysis.
(§3) Calibration standards were prepared in plasma for each species and analyzed in batches by LC-MS/MS. Sample batches consisted of 3 replicates of a system suitability standard (containing the analyte and internal standard), the appropriate calibration standards in ascending order including a blank sample without internal standard, a zero sample (with internal standard), and at least 6 nonzero standards and the assay samples, followed by the 3 replicates of the system suitability sample.

rabbit hepatocytes = assay: Hepatocyte intrinsic clearance, rabbit; format: in vitro ADME
Excerpt: (§4) In human, rat, rabbit, dog and monkey hepatocytes, the metabolite profile of RE104 was qualitatively similar across these species with only minor differences.

[2] = Prodrug cleavage in dog plasma; format: in vitro ADME; conditions: after 4 hours of incubation
Procedure: as §1, §2, §3

in vivo = conditions: male, beagle, dog, plasma
Procedure: Two consecutive doses were separated by z7 days. Plasma samples were analyzed using an LC-MS/MS method (lower limit of quantification of 1.00 ng/mL for both analytes).
Pharmacokinetic parameters were calculated using Phoenix WinNonlin, version 6.3 or 8.2 (Certara, Princeton, NJ, USA).
For dog PK assessments, approximately 0.5 mL of blood was collected via superficial vein before dose and at 5 (for IV and SC injections only), 15, and 30 minutes and 1, 2, 4, 8, 16, 24, 48, and 72 hours post dose into tubes containing K2EDTA with 10 mM Dichlorvos as the anticoagulant and stabilizer, respectively.

[3] = biological target: human recombinant 5-HT2B receptors (Homo sapiens, UniProt P41595); assay: 5-HT2B agonist radioligand binding assay ([125I]DOI)
human recombinant 5-HT2B receptors, sequence (P41595 whole entry): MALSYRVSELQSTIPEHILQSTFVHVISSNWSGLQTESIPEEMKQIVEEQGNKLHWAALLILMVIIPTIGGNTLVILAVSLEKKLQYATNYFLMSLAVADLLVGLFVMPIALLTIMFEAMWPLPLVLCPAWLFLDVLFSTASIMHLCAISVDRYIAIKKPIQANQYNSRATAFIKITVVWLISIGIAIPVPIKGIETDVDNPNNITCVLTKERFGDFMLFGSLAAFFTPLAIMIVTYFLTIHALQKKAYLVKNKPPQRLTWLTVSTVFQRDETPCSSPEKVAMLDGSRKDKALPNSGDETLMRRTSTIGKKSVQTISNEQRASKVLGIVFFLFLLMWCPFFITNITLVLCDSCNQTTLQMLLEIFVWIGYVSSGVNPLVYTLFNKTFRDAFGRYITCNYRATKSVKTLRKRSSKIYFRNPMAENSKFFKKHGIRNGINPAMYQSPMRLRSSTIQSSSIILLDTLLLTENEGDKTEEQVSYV
Procedure: Increasing concentrations of RE104 were incubated with 0.2 nM [^125I]DOI in CHO cell cultures expressing human recombinant 5-HT2B receptors.
Radioligand concentration was measured by scintillation counting; compound binding was calculated as percent inhibition of the binding of [^125I]DOI. In agonist activity assays, test concentrations of RE104 were incubated with HEK-293 cells expressing human recombinant 5-HT2A receptors; IP1 production was detected using homogeneous time-resolved fluorescence. Activation was calculated as a percentage of the response to the positive control (10 μM 5-HT).
Inhibition constants were calculated by using the Cheng-Prusoff equation Ki=IC50/(1+L/KD), where L=radioligand concentration and KD=radioligand affinity for the receptor (determined with a Scatchard plot). In the functional activity assay test concentrations of RE104 were 10 nM, 30 nM, 100 nM, 300 nM, 1 μM, 3 μM, 10 μM, and 30 μM. EC50 and IC50 values were determined by nonlinear regression analysis of the concentration-response curves generated with mean replicate values using Hill equation curve fitting.

healthy females = assay: Phase 1 FIH study: modified Drug Effect Questionnaire (DEQ-High); format: in vivo, human; parameters: mean time to peak DEQ-High score: dose or concentration left out as unconfirmed
Procedure: The study was a double-blind, randomized, placebo-controlled Phase 1 single ascending dose study in up to 6 cohorts in healthy females. Eligibility was assessed during a screening period of up to 28 days prior to enrollment. For the treatment period, subjects were admitted to the clinical research unit (CRU) one day prior to the dosing (Day −1). On Day 1, all subjects will received the assigned SC dose of RE104 HCl or placebo in a fed state (after domiciling overnight and consuming a planned evening meal on Day −1 and morning meal on Day 1 while at the CRU). Subjects were allowed to select snacks from a planned menu from 4 hours following dosing. Subjects were discharged from the clinic on Day 2 (−24 hours post-dose) after all required study procedures were completed and if deemed medically fit. Subjects returned to the clinic on Day 10 (±2 days) for a follow up visit.
The Drug Effect Questionnaire (DEQ) Feel/High is widely used in studies of acute subjective response to a variety of substances, to assess two key aspects of subjective experience: (1) the strength of substance effects and (2) desirability of substance effects (Morean et al., 2013). The modified DEQ assesses the extent to which subjects (1) feel any substance effect(s) and (2) feel high. This version of the DEQ includes the following items: “Do you feel a drug effect right now?” (FEEL); “Are you high right now?” (HIGH). FIG. 2 sets out the modified DEQ that was used.
The modified DEQ was used as an 11-point numeric rating scale (0-10) administered by a qualified staff member. The subjects were asked to verbally respond to indicate how strongly they feel the drug effect and how high they feel on the scale of 0-10 after being administered the study drug (Kollltveit et al., 2020).

[4] = Non-GLP single dose, dose range study in rats (MTD); conditions: rat, in vivo, sc
Procedure: Non-GLP single dose, dose range studies with RE104 HCl were performed in rats and dogs to explore toxicity and establish a maximum tolerated dose (MTD) by SC injection. The rat study explored dosing with two formulations, water for injection (WFI) at pH 3-4 and phosphate buffered saline (PBS) with a final formulation pH of 4.5-5. Single doses of 20 to 300 mg/kg formulated in WFI produced dose-dependent pharmacologically related systemic serotonergic clinical signs. Similarly, SC administration with doses of 25 to 225 mg/kg RE104 formulated in PBS caused clinical signs of SS around 1 hour with recovery by 24 hours.
Clinical signs were reversible by Recovery Day 13 (Study Day 14). Microscopic injection site pathology was seen following a single dose of 225 mg/kg. The MTD in the rat for RE104 in WFI was 150 mg/kg and in PBS was 75 mg/kg.

dog hepatocytes = assay: Hepatocyte intrinsic clearance, dog; format: in vitro ADME
Excerpt: as §4

monkey hepatocytes = assay: Hepatocyte intrinsic clearance, monkey; format: in vitro ADME
Excerpt: as §4

[5] = GLP 14-day extended single SC dose toxicity study in rats; conditions: rat; for NOAEL at 14 days: in vivo
Procedure: (§5) In a GLP 14-day extended single SC dose toxicity study in rats, doses of 0 (PBS), 10, 25 and 75 mg/kg were evaluated. Animals were necropsied on Study Day 2 and Day 14 (also referred to as Recovery Day 13) post-dosing.
(§6) A non-GLP dose range study was performed in the dog in order to determine an MTD. Single SC doses of 7.5, 15 and 20 mg/kg were evaluated.

rats = assay: as above
Procedure: as §5, §6

[6] = system: cytochrome P450 (CYP) enzymes, FMO and MAO enzymes; assay: Recombinant human enzymes (Supersomes) substrate assay; format: in vitro ADME
male Wistar rats = assay: Forced swim test (FST) in rats; format: in vivo, rat

## CC(C)N(CCc1c[nH]c2cccc(OC(=O)CCCC(=O)O)c12)C(C)C [RE104]
[1]
  completeness of conversion: > 95%
  time of conversion to 4-OH-DiPT: < 30 min
Rabbit hepatocytes
  in vitro intrinsic clearance (CLint): 4.88 mL/hr/106 cells
[2]
  prodrug remaining: 39%
In vivo; po, 5 mg/kg
  AUC(0-inf): 0.0218 µg·h/mL
  AUC(0-t): 0.02 µg·h/mL
  Cmax: 12.2 ng/mL
  Tmax: 30 min
  bioavailability: 0.854%
  half-life: 78 min
In vivo; sc, 1 mg/kg
  AUC(0-t): 0.658 µg·h/mL
[3]
  IC50: 0.74 µM
[3]; read-out: binding Ki at the 5-HT2B receptor, CHO cells
  Ki: 1.8 µM
Healthy females
  mean time to peak DEQ-High score: 1.1 h
Healthy females; 33 mg
  Mean Experience Duration: 3.7 h
Healthy females; 4 hours post dose
  DEQ-High score, all participants: 51
[4]; formulated in PBS
  MTD at 14 days: 75 mg/kg
[4]; formulated in WFI
  MTD at 14 days: 150 mg/kg
Dog hepatocytes
  in vitro intrinsic clearance (CLint): 0.87 mL/hr/106 cells
Monkey hepatocytes
  in vitro intrinsic clearance (CLint): 1.14 mL/hr/106 cells
[5]; Sprague Dawley, sc
  NOAEL at 14 days: 10 mg/kg
[5]; Sprague Dawley, plasma, sc, 10 mg/kg
  Cmax: 0.751 ng/mL
[5]; both, Sprague Dawley, sc
  NOAEL at 14 days: 10 mg/kg
[5]; female, subcutaneous
  NOAEL at 14 days: 10 mg/kg
rats; expressed as zwitterion, 60 kg human, BSA conversion
  human equivalent dose [HED] of the 10 mg/kg rat dose: approximately 97 mg
rats; male rats
  low adverse effect level (LOAEL): 10 mg/kg
rats; rat
  1/10 of HED: 0.16 mg/kg
  1/10 of Human BSA dose: 9.7 mg
  Human BSA dose: 60 mg/m^2
rats; rat HED vs 5 mg (zwitterion)
  fold HED higher than proposed starting dose: approximately 19 fold
rats; rat HED vs 48 mg (zwitterion)
  fold HED higher than maximum proposed dose: ~2 fold
rats; rat NOAEL, BSA conversion factors
  HED: 1.6 mg/kg
rats; rat, based on a BSA of 1.62 m^2
  Human BSA dose: 97.2 mg
[6]
  substrate for cytochrome P450, FMO or MAO isoforms: not a substrate
Male Wistar rats; rat FST, day 28
  climbing as share of escape behaviors: 45%
  swimming as share of escape behaviors: 55%
Male Wistar rats; rat FST, single 1 mg/kg dose
  mean swimming time relative to vehicle: significantly increased
Male Wistar rats; rat FST, single 1 mg/kg dose, day 7, 14, and 28
  mean immobility time vs vehicle: significant decrease
Male Wistar rats; rat, dosing day, 1 mg/kg
  duration of distinctive serotonergic behaviors: approximately 3 hours
